Patent US12589156B2, “Benzimidazole and benzimidazolone based protac compounds for the targeted degradation of leucine rich repeat kinase 2 (LRRK2)” (Arvinas Operations, Inc., priority 2023, dated 2026)

Molecular target: T1, WT LRRK2 (Homo sapiens, UniProt Q5S007)
T1 construct: endogenous in cells; host or cells: HEK293 (endogenous LRRK2 gene knock-in tagged with HiBit; stably expressing CMV-driven firefly luciferase)
Assay: LRRK2 HiBit degradation assay (Nano-Glo Dual Luciferase) in HEK293 cells with HiBit-tagged endogenous LRRK2
Type: cell-based
From the text: Biological Assays Exemplary Assay for Testing LRRK2 Degradation Driven by Exemplary Hetero-Bifunctional Compounds Designed to Target LRRK2
The assay measures the degradation of LRRK2 in cells where the C-terminus (3′) of the endogenous gene has been tagged with a HiBit sequence in HEK293 cells. The cells also express firefly lucisferase, expressed from a Cytomegalovirus promoter and introduced into the HiBit tagged cells and stably expressed. The Nano-Glo® Dual Luciferase Reporter Assay System (Promega™, Madison, WI) was utilized.
Day 1—Preparation of Compound and Assay Plates. Two sets of plates were prepared: a triplicate set for the HiBit assay in white 384-well plates and a triplicate set of plate in black 384-well plates for the Alamar Blue cell viability assay. Briefly, the growth media (DMEM+Glutamax-10% fetal bovine serum-1% Penicillin-Streptomicin) from two T128 flasks was aspirated from the flasks. Cells were washed with Dulbecco's Phosphate Buffered Saline (dPBS) and aspirated. Trypsin (3 mL per flask) was added and the flasks were incubated for 2-3 minutes.
Ten mL of OptiMEM—10% fetal bovine-1% penicillin-streptomycin (hereinafter, “OptiMEM media”) was added to the flask and the cells and transferred to a 50 ml conical tube. A cell count (25 ul of cell into Effendorf vial+25 ul of Trypan Blue Stain) was performed and the cell density adjusted to 15,000 cell/45 μl/well (3.33×10^5/mL) in OptiMEM media.
Forty-five microliters of the cell suspension (15,000 cells) was aliquoted to each well of the white 384-well plate. The plates incubated at room temperature for 10 minutes before being placed in the 37° C.+5% CO2 incubator overnight
Day 2—Compound Treatment. Exemplary compounds were prepared at a 1 mM starting concentration and 1:3 serial dilution for 11 points CRC prepared and stored in the freezer. The Master Compound Plate was thawed overnight at room temperature. DMSO (20 μL) was added into column 24 of the Master Compound Plate for negative control and 20 μL of 300 μM of Compound 4 in column 23 as positive control.
Intermediate Compound Plate with 4% DMSO in OptiMEM Media. DMSO was added to warm OptiMEM media to achieve a 4% DMSO solution (approximately 50 mL/plate). One-hundred microliters of the OptiMEM-4% DMSO was aliquoted to each well of 384-Well Deep Well Microplates.
The Master Compound Plate and the Intermediate Compound Plate were spun down.
One microliter of compound from the Master Compound Plate was transferred into the Intermediate plate (a 1:100 dilution). The diluted mixture was mixed and 5 μL transferred into the assay plate (a 1:10 dilution) for the final starting concentration of 1 μM. The Treated Assay plates were incubated for 24 hours at 37° C.+5% CO2. The Master Compound Plate was sealed and store at room temperature for a second run that was performed within a week.
One set of white assay plates was warmed to room temperature (45 minute).
The One Glo luciferase mixture was prepared. The media from white 384-well assay plates was aspirated. Twenty-five μL of the One Glo luciferase mixture was added to each well of the assay plates. The plates were incubated on the bench (room temperature) for 45 minutes, including 10 minutes of shaking at 700 rpm. The luminescence of each plate was read on a plate reader.
1:100 DLR substrate and 1:100 LgBiT Protein dilution were added to the Promega Stop and Glo buffer and mixed just before addition to assay plates. Twenty-five microliters of Stop and Glo mixture was added to each well. Assay plates incubated for at least 45 minutes, including 10 minutes of shaking at 700 rpm. The luminescence of each plate was read on a plate reader.
Analysis of LRRK2 HiBit Screening assays. As mentioned above, plates were run in triplicate and the assay repeated twice (total of 6 replicate for exemplary compounds). For each treatment, measurements were taken for firefly luciferase for cell number, cell viability (Alamar Blue), and Nanoluc for the LRRK2-HiBit quantification. […]

[1] = HEK293, Table 3, comparison with direct comparators, maximal degradation
[2] = Table 3, comparison with direct comparators, HiBit-tagged LRRK2 in HEK293 cells, 24 hours treatment
[3] = Table 2, HiBit-tagged LRRK2 in HEK293 cells, 24 hours treatment, starting concentration 1 μM
[4] = HEK293, Table 2, maximal degradation, HiBit-tagged LRRK2 in HEK293 cells, 24 hours treatment

T1 sequence (Q5S007 whole entry): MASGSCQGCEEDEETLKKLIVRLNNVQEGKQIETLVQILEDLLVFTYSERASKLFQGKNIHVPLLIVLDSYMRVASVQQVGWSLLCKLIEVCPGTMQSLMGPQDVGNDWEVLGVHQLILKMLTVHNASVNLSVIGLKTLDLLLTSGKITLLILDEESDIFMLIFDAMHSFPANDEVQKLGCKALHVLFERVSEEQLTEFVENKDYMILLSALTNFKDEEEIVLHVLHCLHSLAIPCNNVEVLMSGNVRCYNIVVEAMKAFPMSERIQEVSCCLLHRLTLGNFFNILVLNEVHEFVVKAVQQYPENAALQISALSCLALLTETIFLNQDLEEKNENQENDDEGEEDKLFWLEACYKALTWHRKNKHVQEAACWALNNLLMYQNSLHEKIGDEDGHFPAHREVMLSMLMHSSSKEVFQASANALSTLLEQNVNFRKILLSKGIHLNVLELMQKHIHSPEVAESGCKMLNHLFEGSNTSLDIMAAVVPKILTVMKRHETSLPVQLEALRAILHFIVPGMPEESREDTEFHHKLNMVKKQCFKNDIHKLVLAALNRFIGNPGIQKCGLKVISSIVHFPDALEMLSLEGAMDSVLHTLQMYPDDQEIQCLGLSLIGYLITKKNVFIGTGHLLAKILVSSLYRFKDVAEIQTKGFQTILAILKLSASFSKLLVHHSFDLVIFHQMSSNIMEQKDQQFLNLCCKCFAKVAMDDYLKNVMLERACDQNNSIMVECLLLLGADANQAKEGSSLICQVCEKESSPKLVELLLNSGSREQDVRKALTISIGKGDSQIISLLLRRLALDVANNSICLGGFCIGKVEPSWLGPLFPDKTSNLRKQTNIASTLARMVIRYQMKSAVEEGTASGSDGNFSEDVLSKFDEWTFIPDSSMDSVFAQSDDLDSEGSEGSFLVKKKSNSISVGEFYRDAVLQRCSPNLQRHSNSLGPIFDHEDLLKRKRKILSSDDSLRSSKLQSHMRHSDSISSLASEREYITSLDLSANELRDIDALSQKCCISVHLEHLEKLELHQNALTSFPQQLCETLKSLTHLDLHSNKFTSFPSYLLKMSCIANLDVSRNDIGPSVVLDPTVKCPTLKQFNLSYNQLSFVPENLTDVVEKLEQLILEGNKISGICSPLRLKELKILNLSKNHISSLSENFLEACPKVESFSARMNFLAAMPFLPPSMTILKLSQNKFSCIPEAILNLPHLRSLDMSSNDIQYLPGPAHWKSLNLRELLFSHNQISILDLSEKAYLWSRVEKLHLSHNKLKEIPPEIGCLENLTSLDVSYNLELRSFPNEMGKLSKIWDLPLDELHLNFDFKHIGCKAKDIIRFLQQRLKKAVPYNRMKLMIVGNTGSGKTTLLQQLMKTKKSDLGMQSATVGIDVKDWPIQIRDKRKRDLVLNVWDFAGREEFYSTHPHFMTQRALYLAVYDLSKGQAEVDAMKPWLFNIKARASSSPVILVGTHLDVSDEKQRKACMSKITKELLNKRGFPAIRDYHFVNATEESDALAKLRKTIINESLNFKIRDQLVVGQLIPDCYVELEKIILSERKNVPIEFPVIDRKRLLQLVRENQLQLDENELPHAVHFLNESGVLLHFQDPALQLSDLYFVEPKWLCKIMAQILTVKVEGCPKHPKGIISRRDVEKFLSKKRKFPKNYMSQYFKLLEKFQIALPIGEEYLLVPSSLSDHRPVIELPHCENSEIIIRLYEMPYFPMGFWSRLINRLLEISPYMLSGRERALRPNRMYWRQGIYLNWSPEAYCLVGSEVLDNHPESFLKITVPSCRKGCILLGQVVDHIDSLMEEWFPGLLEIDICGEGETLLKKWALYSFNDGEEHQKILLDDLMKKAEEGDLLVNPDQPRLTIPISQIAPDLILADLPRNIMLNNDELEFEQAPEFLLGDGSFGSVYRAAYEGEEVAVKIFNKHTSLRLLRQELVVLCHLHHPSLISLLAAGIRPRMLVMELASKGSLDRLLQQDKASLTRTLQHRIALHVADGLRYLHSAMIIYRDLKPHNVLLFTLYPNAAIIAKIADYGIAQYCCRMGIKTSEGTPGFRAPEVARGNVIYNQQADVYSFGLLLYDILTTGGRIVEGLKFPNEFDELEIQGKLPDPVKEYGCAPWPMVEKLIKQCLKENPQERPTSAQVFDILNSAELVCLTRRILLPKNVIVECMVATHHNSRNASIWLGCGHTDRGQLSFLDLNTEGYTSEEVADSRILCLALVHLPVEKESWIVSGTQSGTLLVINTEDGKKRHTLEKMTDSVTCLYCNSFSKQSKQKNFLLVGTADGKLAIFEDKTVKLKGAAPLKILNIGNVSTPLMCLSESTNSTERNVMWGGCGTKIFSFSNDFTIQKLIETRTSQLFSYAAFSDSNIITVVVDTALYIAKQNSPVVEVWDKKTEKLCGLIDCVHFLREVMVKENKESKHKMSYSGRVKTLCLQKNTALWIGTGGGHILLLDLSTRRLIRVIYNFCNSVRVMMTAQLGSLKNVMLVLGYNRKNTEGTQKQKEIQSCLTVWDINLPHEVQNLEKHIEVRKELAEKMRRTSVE

Structure (SMILES)	Dmax [1] [%]	DC50 [2] [nM]	DC50 [3] [nM]	WT LRRK2 **Dmax (%) (Table 2, maximal degradation, HiBit-tagged LRRK2 in HEK293 cells, 24 hours treatment)	Dmax [4] [%]
COc1c(N2CCC(CN3CCN(CC4CCN(c5cc(-c6n[nH]c7cnc(OC8(C)CC8)cc67)ncn5)CC4)C(C)(C)C3)CC2)ccc2c1CN(C1CCC(=O)NC1=O)C2=O (stereo not drawn) [Comparative Example 6, reference compound]	68	1.7	–	–	–
Cn1c(=O)n(C2CCC(=O)NC2=O)c2ccc(N3CCC(OC4CCC(OC5CCN(c6cc(-c7n[nH]c8cnc(OC9(C)CC9)cc78)ncn6)CC5)CC4)CC3)cc21 (stereo not drawn) [Compound 25, rel-3-[3-methyl-2-oxo-5-(4-{[(1r,4r)-4-[(1-{6-[5-(1-methylcyclopropoxy)-1H-pyrazolo[3,4-c]pyridin-3-yl]pyrimidin-4-yl}piperidin-4-yl)oxy]cyclohexyl]oxy}piperidin-1-yl)-2,3-dihydro-1H-1,3-benzodiazol-1-yl]piperidine-2,6-dione]	–	–	0.32	48	–
Cc1nc2cc(N3CCC(O[C@H]4CC[C@H](CN5CCN(c6cc(-c7n[nH]c8ccc(OC9(C)CC9)cc78)ncn6)CC5)CC4)CC3)ccc2n1C1CCC(=O)NC1=O (stereo partly drawn) [Compound 42, rel-3-[2-methyl-5-(4-{[(1r,4r)-4-[(4-{6-[5-(1-methylcyclopropoxy)-1H-indazol-3-yl]pyrimidin-4-yl}piperazin-1-yl)methyl]cyclohexyl]oxy}piperidin-1-yl)-1H-1,3-benzodiazol-1-yl]piperidine-2,6-dione]	52	5.2	5.2	–	42
CC(C)Oc1ccc2[nH]nc(-c3cc(N4CCN(C[C@H]5CC[C@H](OC6CCN(c7ccc8c(c7)n(C(C)C)c(=O)n8C7CCC(=O)NC7=O)CC6)CC5)CC4)ncn3)c2c1 (single isomer, unassigned) [Compound 57, rel-3-[2-oxo-3-(propan-2-yl)-5-(4-{[(1r,4r)-4-[(4-{6-[5-(propan-2-yloxy)-1H-indazol-3-yl]pyrimidin-4-yl}piperazin-1-yl)methyl]cyclohexyl]oxy}piperidin-1-yl)-2,3-dihydro-1H-1,3-benzodiazol-1-yl]piperidine-2,6-dione]	–	–	0.64	–	51
Cn1c(=O)n(C2CCC(=O)NC2=O)c2ccc(N3CCC(O[C@H]4CC[C@H](CN5CCN(c6cc(-c7n[nH]c8cnc(C9(C#N)CC%10(CC%10)C9)cc78)ncn6)CC5)CC4)CC3)cc21 (single isomer, unassigned) [Compound 24, rel-5-{3-[6-(4-{[(1r,4r)-4-({1-[1-(2,6-dioxopiperidin-3-yl)-3-methyl-2-oxo-2,3-dihydro-1H-1,3-benzodiazol-5-yl]piperidin-4-yl}oxy)cyclohexyl]methyl}piperazin-1-yl)pyrimidin-4-yl]-1H-pyrazolo[3,4-c]pyridin-5-yl}spiro[2.3]hexane-5-carbonitrile]	–	–	0.46	–	49
Cn1c(=O)n(C2CCC(=O)NC2=O)c2ccc(N3CCC(CN4CCN(CC5CCN(c6cc(-c7n[nH]c8ccc(OC9(C)CC9)cc78)ncn6)CC5)C(C)(C)C4)CC3)cc21 (stereo not drawn) [Compound 14, 3-{5-[4-({3,3-dimethyl-4-[(1-{6-[5-(1-methylcyclopropoxy)-1H-indazol-3-yl]pyrimidin-4-yl}piperidin-4-yl)methyl]piperazin-1-yl}methyl)piperidin-1-yl]-3-methyl-2-oxo-2,3-dihydro-1H-1,3-benzodiazol-1-yl}piperidine-2,6-dione]	58	0.22	0.22	–	58
Cn1c(=O)n(C2CCC(=O)NC2=O)c2ccc(N3CCC(O[C@H]4CC[C@H](CN5CCN(c6cc(-c7n[nH]c8cnc(OC(C)(C)C)cc78)ncn6)CC5)CC4)CC3)cc21 (single isomer, unassigned) [Compound 19, rel-3-[3-methyl-2-oxo-5-(4-{[(1r,4r)-4-[(4-{6-[5-(tert-butoxy)-1H-pyrazolo[3,4-c]pyridin-3-yl]pyrimidin-4-yl}piperazin-1-yl)methyl]cyclohexyl]oxy}piperidin-1-yl)-2,3-dihydro-1H-1,3-benzodiazol-1-yl]piperidine-2,6-dione]	–	–	28	–	76
CC(C)n1c(=O)n(C2CCC(=O)NC2=O)c2ccc(N3CCC(O[C@H]4CC[C@H](CN5CCN(c6cc(-c7n[nH]c8cnc(OC(C)(C)C)cc78)ncn6)CC5)CC4)CC3)cc21 (single isomer, unassigned) [Compound 58, rel-3-[2-oxo-3-(propan-2-yl)-5-(4-{[(1r,4r)-4-[(4-{6-[5-(tert-butoxy)-1H-pyrazolo[3,4-c]pyridin-3-yl]pyrimidin-4-yl}piperazin-1-yl)methyl]cyclohexyl]oxy}piperidin-1-yl)-2,3-dihydro-1H-1,3-benzodiazol-1-yl]piperidine-2,6-dione]	–	–	33	–	70
Cn1c(=O)n(C2CCC(=O)NC2=O)c2cccc(N3CCC(CN4CCN(CC5CCN(c6cc(-c7n[nH]c8ccc(OC9(C)CC9)cc78)ncn6)CC5)CC4)CC3)c21 (stereo not drawn) [Compound 15, 3-{3-methyl-4-[4-({4-[(1-{6-[5-(1-methylcyclopropoxy)-1H-indazol-3-yl]pyrimidin-4-yl}piperidin-4-yl)methyl]piperazin-1-yl}methyl)piperidin-1-yl]-2-oxo-2,3-dihydro-1H-1,3-benzodiazol-1-yl}piperidine-2,6-dione]	59	1.5	1.5	–	59
Cn1c(=O)n(C2CCC(=O)NC2=O)c2cccc(N3CCC(CN4CCN(CC5CCN(c6cc(-c7n[nH]c8ccc(OC9(C)CC9)cc78)ncn6)CC5)C(C)(C)C4)CC3)c21 (stereo not drawn) [Compound 8, 3-{4-[4-({3,3-dimethyl-4-[(1-{6-[5-(1-methylcyclopropoxy)-1H-indazol-3-yl]pyrimidin-4-yl}piperidin-4-yl)methyl]piperazin-1-yl}methyl)piperidin-1-yl]-3-methyl-2-oxo-2,3-dihydro-1H-1,3-benzodiazol-1-yl}piperidine-2,6-dione]	65	1.2	1.2	–	65
CC1(Oc2ccc3[nH]nc(-c4cc(N5CCN(C[C@H]6CC[C@H](OC7CCN(c8cccc9c8ncn9C8CCC(=O)NC8=O)CC7)CC6)CC5)ncn4)c3c2)CC1 (stereo partly drawn) [Compound 3, 3-[4-(4-{[(1r,4r)-4-[(4-{6-[5-(1-methylcyclopropoxy)-1H-indazol-3-yl]pyrimidin-4-yl}piperazin-1-yl)methyl]cyclohexyl]oxy}piperidin-1-yl)-1H-1,3-benzodiazol-1-yl]piperidine-2,6-dione]	30	28	28	–	30
Cc1nc2cc(N3CCC(CN4CCN(CC5CCN(c6cc(-c7n[nH]c8ccc(OC9(C)CC9)cc78)ncn6)CC5)C(C)(C)C4)CC3)ccc2n1C1CCC(=O)NC1=O (stereo not drawn) [Compound 38, 3-{5-[4-({3,3-dimethyl-4-[(1-{6-[5-(1-methylcyclopropoxy)-1H-indazol-3-yl]pyrimidin-4-yl}piperidin-4-yl)methyl]piperazin-1-yl}methyl)piperidin-1-yl]-2-methyl-1H-1,3-benzodiazol-1-yl}piperidine-2,6-dione]	53	1.2	1.2	–	53
